Results as given in PMC5754397, “Population pharmacokinetics of nintedanib, an inhibitor of tyrosine kinases, in patients with non-small cell lung cancer or idiopathic pulmonary fibrosis” (Cancer Chemotherapy and Pharmacology, 2017).

How the values were obtained:
[1] = parameters: method as in ref 34 = [34]; 34. Boehringer Ingelheim (2015) Pharmacokinetics, safety and tolerability of nintedanib single oral dose in male and female patients with different degrees of hepatic impairment (Child-Pugh classifica); conditions: Child–Pugh classification, subjects with liver cirrhosis; cited from earlier work
[2] = tested on: P-glycoprotein (P-gp); parameters: method as in ref 13, 21, 22 = [13]; 13. Boehringer Ingelheim (2017) OFEV® (nintedanib) capsules, for oral use; Prescribing information, revised: 08/2017. http://docs.boehringer-ingelheim.com/Prescribing%20Information/PIs/Ofev/ofev.pdf . || [21]; 21. Boehringer Ingelheim (2013) Relative bioavailability of nintedanib given alone and in combination with ketoconazole at steady state in healthy male volunteers (an open-label, randomised, two-way c || [22]; 22. Boehringer Ingelheim (2013) Relative bioavailability of a single oral dose of nintedanib given alone and in combination with multiple oral doses of rifampicin in healthy male volunteers (an open-l); conditions: cited from earlier work
[3] = Population pharmacokinetic analysis in healthy subjects after intravenous administration of nintedanib (one-compartment model); format: in vivo, human; conditions: human, plasma, estimate (RSE%)
Description: The pharmacokinetic profile of BIBF 1202 was best described by a one-compartment model with first-order elimination (see Online Resource Fig. S1 for model structure). To account for formation of BIBF 1202 in the intestine or via hepatic first-pass effect, a first-order absorption with lag time (ALAG2) was implemented as per nintedanib absorption. The relative bioavailability (F2) and the absorption-rate constant (k a2) were implemented as functions of nintedanib F1 and k a, respectively (substantial drop in OFV as compared to a model, where F2 and k a2 were estimated independently of F1 and k a). This parametrization accounted for correlations between nintedanib and BIBF 1202 parameters and replaced the full variance–covariance matrix which was not applied due to the sequential modeling approach used. The rate of formation of BIBF 1202 (k met) during nintedanib systemic elimination was accounted by defining it as a function of nintedanib clearance: k met = CL/V2*ffM, where CL and V2 denote the clearance and central volume of distribution of nintedanib respectively, and ffM denotes the proportion of the nintedanib elimination resulting in BIBF 1202 formation. Due to the lack of data for BIBF 1202 given as an intravenous (IV) infusion, several parameter estimates were not identifiable (ffM, BIBF 1202 apparent volume of distribution [V3/F]) and were, therefore, fixed. The value for ffM was derived from pharmacokinetic data after IV administration of nintedanib (Online Resource Table S4) and the ratio of V3/F–V2/F was fixed based on information observed in rats. […] In addition to the (inter-individual) variability of F2 induced by the variability in F1 (F2 being proportional to F1), additional IIV could be implemented for F2.
Table S4 Structural parameters for nintedanib and BIBF 1202 from a population pharmacokinetic analysis based on healthy subjects (n=23^a, 372 observations) after intravenous administration of nintedanib
One subject (3 mg dose) was excluded from analysis due to increasing plasma concentrations of nintedanib after end of infusion

clearance ([3]; healthy subjects (n=23), single intravenous nintedanib infusion 1, 3 or 6 mg, data of absolute bioavailability study [7], read-out: CL, total body clearance for nintedanib (converted)): 2570 mL/min
Vd ([3]; healthy subjects, intravenous nintedanib, read-out: V2, volume of distribution for nintedanib): 60.9 L
Structure (SMILES): COC(=O)c1ccc2c(c1)NC(=O)/C2=C(\Nc1ccc(N(C)C(=O)CN2CCN(C)CC2)cc1)c1ccccc1 [nintedanib]
increase in nintedanib exposure, mild hepatic impairment [1]: ~2 fold
increase in nintedanib exposure, moderate hepatic impairment [1]: ~8 fold
substrate of P-glycoprotein (P-gp) [2]: substrate
